# Laboratory results as given in paper PMC3938571, “Modulation of Basophils' Degranulation and Allergy-Related Enzymes by Monomeric and Dimeric Naphthoquinones” (PLoS ONE, 2014).
# Entries after “also recorded” stand apart in the source; their conditions may differ.
# What was measured:
# [1] = test system: RBL-2H3 cells; assay: IgE/antigen-induced RBL-2H3 basophils' degranulation (β-hexosaminidase release); type: cell-based, rat; conditions: for Effect on IgE/antigen-induced degranulation (in words): naphthazarin 0.1 µM, plumbagin 1 µM
# Experimental: RBL-2H3 cells were seeded at 3.0×10^5 cells/mL in 24-wells plate (1 mL/well), and assayed after 24h at near-confluent stage (∼90%). Two different degranulation stimuli were used: calcium ionophore A23187 500 ng/mL (1 µM) and an immunologic stimulus (100 ng/mL IgE anti-DNP followed by 100 ng/mL DNP-BSA) that we refer to as IgE/antigen (Fig. 2). […] Thus, the ability of naphthoquinones to reduce β-hexosaminidase release was quantified for both stimuli, whereas effects upon histamine were only quantified with the A23187 stimulus, given the low histamine release and poor signal to noise achieved with IgE/antigen.
# When the IgE/antigen was used as stimulus, cells were incubated during 16 h with 100 ng/ml IgE anti-DNP and with individual naphthoquinones diluted in culture medium. After washing twice with Dulbecco's phosphate buffered saline (DPBS), cells were treated for 1 h, at 37°C, with 100 ng/ml DNP-BSA and with individual naphthoquinones diluted in EBSS supplemented with 0.1% BSA (Fig. 2A). After treatments, supernatants were collected in order to quantify released β-hexosaminidase and released histamine, while cell viability assay was performed on adherent cells.
# (§1) The release of β-hexosaminidase from stimulated-RBL-2H3 cells was measured as previously described. In a 96-wells plate, 50 µl of substrate solution [p-nitrophenyl N-acetyl-D-glucosamine 1.3 mg/ml in citrate buffer (pH 4.5)] were added to 30 µl of supernatant. The plate was incubated at 37°C, during 1 h.
# [2] = test system: RBL-2H3 cells; assay: Calcium ionophore A23187-induced RBL-2H3 degranulation (β-hexosaminidase release); type: cell-based, rat; conditions: for Effect on A23187 (calcium ionophore)-induced degranulation (in words): naphthazarin 0.1 µM, plumbagin 1 µM, diospyrin 10 µM, others at maximal tested concentrations
# Experimental: (§2) RBL-2H3 cells were seeded at 3.0×10^5 cells/mL in 24-wells plate (1 mL/well), and assayed after 24h at near-confluent stage (∼90%). Two different degranulation stimuli were used: calcium ionophore A23187 500 ng/mL (1 µM) and an immunologic stimulus (100 ng/mL IgE anti-DNP followed by 100 ng/mL DNP-BSA) that we refer to as IgE/antigen (Fig. 2). Both stimuli induced degranulation, which was quantified by β-hexosaminidase and histamine release. With IgE/antigen, β-hexosaminidase release (p-nitrophenolate absorbance) increased by 65.4±6.8% above basal (n = 16; P<0.001), whereas histamine increased from the basal value of 0.156±0.151 µM towards 0.521±0.186 µM (n = 10; P<0.05). With A23187, β-hexosaminidase release increased by 187±18.9% above basal (n = 12; P<0.001), whereas histamine increased towards 2.43±0.330 µM (n = 12; P<0.001). Thus, the ability of naphthoquinones to reduce β-hexosaminidase release was quantified for both stimuli, whereas effects upon histamine were only quantified with the A23187 stimulus, given the low histamine release and poor signal to noise achieved with IgE/antigen.
# (§3) Before treatment with A23187, cells were incubated with individual naphthoquinones during 15 min, at 37°C. After that, A23187 1 µM was added and cells incubated for 30 min, at 37°C (Fig. 2B). Compounds were freshly diluted prior to cell exposure using EBSS supplemented with 0.1% BSA [21]. β-hexosaminidase and histamine release was quantified in supernatants, whereas the MTT cell viability assay was performed on adherent cells.
# as §1, with “h. The reaction was stopped by the addition of 80 µl of NaOH 0.5 M and the reaction product, p-nitrophenolate, was measured spectrophotometrically at 405 nm, in a microplate reader (Multiskan ASCENT Thermo®).” for “h.”
# [3] = test system: hyaluronidase from bovine tests (type IV-S; EC 3.2.1.35); assay: Hyaluronidase inhibition, cell-free (Morgan-Elson); type: biochemical; conditions: for Hyaluronidase inhibition (%): maximal inhibition, mean±SEM
# Experimental: The reaction product, N-acetyl-sugar, was quantified according Morgan-Elson colour reaction with minor modifications. The Morgan-Elson reaction was started by addition of 25 µl disodium tetraborate 0.8 M and subsequent heating in a boiling water bath during 3 min. After cooling, 750 µl p-dimethylaminobenzaldehyde (DMAB) was added and the reaction mixture was incubated at 37°C for 20 min. […] The measurement was made spectrophotometrically, at 560 nm, in a microplate reader (Multiskan ASCENT Thermo®), [24]. Sodium cromoglycate was used as a positive control for inhibition.
# [4] = biological target: T1, soybean lipoxidase (Glycine max, UniProt P08170); assay: Soybean lipoxidase inhibition, cell-free; type: biochemical, Glicine max (L.) Merr.; conditions: mean±SEM; for IC50: cell-free assay
# T1 construct: purchased Sigma-Aldrich (St. Louis, MO, USA) type V-S; host or cells: soybean (plant preparation)
# T1 sequence (P08170 1-839): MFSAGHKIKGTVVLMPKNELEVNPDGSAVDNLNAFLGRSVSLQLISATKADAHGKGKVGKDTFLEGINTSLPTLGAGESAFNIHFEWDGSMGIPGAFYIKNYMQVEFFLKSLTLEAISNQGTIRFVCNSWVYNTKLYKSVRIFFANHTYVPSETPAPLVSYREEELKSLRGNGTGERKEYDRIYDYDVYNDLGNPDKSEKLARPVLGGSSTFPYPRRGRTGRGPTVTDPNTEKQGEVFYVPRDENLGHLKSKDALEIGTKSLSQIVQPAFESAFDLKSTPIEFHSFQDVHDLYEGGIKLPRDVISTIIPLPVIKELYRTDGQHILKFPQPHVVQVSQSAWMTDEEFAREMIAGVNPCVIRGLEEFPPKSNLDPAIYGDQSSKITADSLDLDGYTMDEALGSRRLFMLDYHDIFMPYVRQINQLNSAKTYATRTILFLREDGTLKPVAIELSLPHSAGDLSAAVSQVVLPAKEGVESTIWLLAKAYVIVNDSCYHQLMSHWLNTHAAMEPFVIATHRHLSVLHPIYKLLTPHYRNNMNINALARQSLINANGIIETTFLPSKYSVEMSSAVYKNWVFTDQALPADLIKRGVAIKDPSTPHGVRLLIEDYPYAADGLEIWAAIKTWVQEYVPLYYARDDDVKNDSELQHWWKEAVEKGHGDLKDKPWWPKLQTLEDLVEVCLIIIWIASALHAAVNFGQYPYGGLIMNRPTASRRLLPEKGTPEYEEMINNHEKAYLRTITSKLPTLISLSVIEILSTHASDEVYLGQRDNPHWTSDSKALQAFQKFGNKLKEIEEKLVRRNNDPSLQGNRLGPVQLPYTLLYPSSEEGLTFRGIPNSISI
# Experimental: Lipoxidase catalyses the oxidation of linoleic acid to the conjugated diene, 13-hydroperoxy linoleic acid, which was measured spectrophotometrically at 234 nm on a UV/visible spectrophotometer (UNICAM Helios α). The blank was measured in a reaction mixture with 20 µl of individual naphthoquinones solution, 1 ml of phosphate buffer (pH 9) and 20 µl of soybean lipoxidase 500 U. After 5 min pre-incubation at room temperature, the reaction was started by addition of 50 µl of substrate (linoleic acid) at 2 mM in ethanol. The reaction time was 3 min.
# [5] = test system: leukotriene C4 production; assay: Leukotriene C4 production in IgE/antigen-stimulated RBL-2H3 cells (EIA); type: cell-based, rat
# [6] = test system: prostaglandin H2 (PGH2) synthase; design: method as in PMID 2495300; conditions: via ROS production; read-out: IC50 for inhibition of prostaglandin H2 (PGH2) synthase; cited from earlier work
# [7] = test system: leukotriene production; design: method as in PMID 20460770; conditions: by inhibiting 5-lipoxygenase translocation to the nuclear membrane; cited from earlier work
# [8] = test system: RBL-2H3 cells; type: cell-based; conditions: rat
# Experimental: Cell viability was assessed by the cellular dehydrogenases' dependent reduction of MTT to formazan, which was quantified by the measurement of optical density at 550 nm using a microplate reader (Multiskan ASCENT Thermo®), as described before.
# [9] = test system: peripheral blood mononuclear cells (PBMC); design: method as in PMID 21134493; conditions: 5 µM; phytohemagglutinin-stimulated PBMC; cited from earlier work
# [10] = test system: RBL-2H3 cells; assay: Histamine release in A23187-stimulated RBL-2H3 cells; type: cell-based, rat; conditions: 10 µM; A23187 1 µM stimulus
# Experimental: as §2, with “With A23187, β-hexosaminidase release increased by 187±18.9% above basal (n = 12; P<0.001), whereas histamine increased towards 2.43±0.330 µM (n = 12; P<0.001).” left out
# as §3, with “After that, A23187 1 µM was added and cells incubated for 30 min, at 37°C (Fig. 2B).” left out, “cells. […]” for “cells.”
# [11] = Rattus norvegicus, RBL-2H3, maximal inhibition, mean±SEM, read-out: Degranulation inhibition (%) A23187 (decrease of β-hexosaminidase release)
# [12] = Rattus norvegicus, RBL-2H3, maximal inhibition, mean±SEM, read-out: Degranulation inhibition (%) IgE/antigen (decrease of β-hexosaminidase release)
structure (smiles),measurement,setting,value
"O=C1C=CC(=O)c2c(O)cccc21 [Juglone, juglone]",inhibition at 10 µM,"[1]; Rattus norvegicus, RBL-2H3, 10 µM, maximal inhibition, mean±SEM, read-out: Degranulation inhibition (%) IgE/antigen (decrease of β-hexosaminidase release)",39.2 ± 13.3%
same,inhibition at 10 µM,[2]; [11],< 15%
same,Hyaluronidase inhibition (%),[3]; 100 µM,< 15 (100 µM) %
same,inhibition at 183.5 µM,[4]; maximal inhibition,53.1 ± 13.8%
"CC1=CC(=O)c2ccccc2C1=O [Menadione, menadione]",inhibition at 5 µM,"[1]; Rattus norvegicus, RBL-2H3, 5 µM, maximal inhibition, mean±SEM, read-out: Degranulation inhibition (%) IgE/antigen (decrease of β-hexosaminidase release)",< 15%
same,inhibition at 5 µM,"[2]; Rattus norvegicus, RBL-2H3, 5 µM, maximal inhibition, mean±SEM, read-out: Degranulation inhibition (%) A23187 (decrease of β-hexosaminidase release)",< 15%
same,Hyaluronidase inhibition (%),[3]; 100 µM,23.8±6.06 (100 µM) %
same,inhibition at 183.5 µM,[4]; maximal inhibition,83.4 ± 6.8%
same,IC50,[4],128 ± 9.38 µM
same,Effect on leukotriene (LT) C4 levels evoked by IgE/antigen (in words),[5]; 5 nM (lowest concentration tested),strongly decreased LTC4 levels
same,Effect on leukotriene (LT) C4 levels evoked by IgE/antigen (in words),[5]; 5 µM,full inhibition
same,Effect on leukotriene (LT) C4 levels evoked by IgE/antigen (in words),"[5]; 5 µM, listed as menadione",completely abrogated
same,IC50,"[5]; Rattus norvegicus, RBL-2H3, IgE/antigen evoked release, read-out: IC50 for decrease of LTC4 levels",0.34 ± 0.018 µM
same,IC50,[6],5 µM
same,Concentrations reported to reduce leukotriene production,[7],50 to 200 µM
"Cc1cc(O)c2c(c1)C(=O)C(c1c(C)cc3c(c1O)C(=O)C1OC1C3=O)=CC2=O (centres unmarked) [Diosquinone, diosquinone]",inhibition at 1 µM,[1]; [12],18.4 ± 8.07%
same,inhibition at 1 µM,[2]; [11],< 15%
same,Hyaluronidase inhibition (%),[3]; 100 µM,< 15 (100 µM) %
same,inhibition at 183.5 µM,[4]; maximal inhibition,96.5 ± 0.92%
same,IC50,[4],83.8 ± 9.33 µM
same,Effect on leukotriene (LT) C4 levels evoked by IgE/antigen (in words),[5]; 1 µM,unaffected
"O=C(O)c1cc(=O)c2c(OCC(O)COc3cccc4oc(C(=O)O)cc(=O)c34)cccc2o1 [sodium cromoglycate, Sodium cromoglycate, reference compound]",Concentration required for complete hyaluronidase inhibition,[3]; positive control,10 mM
"CC1=CC(=O)c2c(O)cccc2C1=O [Plumbagin, plumbagin]",inhibition at 1 µM,[1]; [12],< 15%
same,Effect on IgE/antigen-induced degranulation (in words),[1],did not prevent degranulation
same,inhibition at 1 µM,[2]; [11],< 15%
same,Effect on A23187 (calcium ionophore)-induced degranulation (in words),[2],did not prevent degranulation
same,Hyaluronidase inhibition (%),[3]; 100 µM,< 15 (100 µM) %
same,inhibition at 183.5 µM,[4]; maximal inhibition,49.8 ± 5.23%
same,IC50,[4],> 184 µM
same,Maximum non-toxic concentration,[8],1 µM
same,Effect on cytokines production (in words),[9],inhibited cytokines production
"Cc1cc(O)c2c(c1)C(=O)C(c1c(C)cc3c(c1O)C(=O)C=CC3=O)=CC2=O [Diospyrin, diospyrin]",inhibition at 1 µM,[1]; [12],< 15%
same,inhibition at 10 µM,[2]; [11],56.8 ± 14.6%
same,Effect on A23187 (calcium ionophore)-induced degranulation (in words),[2],reduced degranulation
same,Decrease of histamine release,[10],51.4±12.8%
same,Hyaluronidase inhibition (%),[3]; 20 µM,< 15 (20 µM) %
same,inhibition at 36.7 µM,"[4]; 36.7 µM, maximal inhibition",65.6 ± 6.24%
same,IC50,[4],28.9 ± 2.53 µM
same,Effect on leukotriene (LT) C4 levels evoked by IgE/antigen (in words),[5]; 1 µM,unaffected; also recorded: unable to reduce leukotrien C4
"O=C1C=CC(=O)c2c(O)ccc(O)c21 [Naphthazarin, naphthazarin]",inhibition at 0.1 µM,"[1]; Rattus norvegicus, RBL-2H3, 0.1 µM, maximal inhibition, mean±SEM, read-out: Degranulation inhibition (%) IgE/antigen (decrease of β-hexosaminidase release)",30.8 ± 3.82%
same,Effect on IgE/antigen-induced degranulation (in words),[1],decreased IgE/antigen-induced degranulation
same,inhibition at 0.1 µM,"[2]; Rattus norvegicus, RBL-2H3, 0.1 µM, maximal inhibition, mean±SEM, read-out: Degranulation inhibition (%) A23187 (decrease of β-hexosaminidase release)",< 15%
same,Effect on A23187 (calcium ionophore)-induced degranulation (in words),[2],failed to reduce ionophore-induced degranulation
same,Hyaluronidase inhibition (%),[3]; 100 µM,16.9±2.45 (100 µM) %
same,inhibition at 183.5 µM,[4]; maximal inhibition,54.4 ± 9.33%
same,IC50,[4],142 ± 27.1 µM
"O=c1c(O)c(-c2ccc(O)c(O)c2)oc2cc(O)cc(O)c12 [Quercetin, reference compound]",Concentration required to reduce β-hexosaminidase release,"[2]; A23187 assay, 10-fold higher than in IgE/antigen assay",100 µM
